Measurements: US11679107B2 (Eisai R&D Management Co., Ltd., priority 2018, dated 2023)
Where two headings read alike, the source gives them in different places.

Legend:
[1] = test system: NCI-H1568 cells (high MCL1); experiment: Cell proliferation and viability, CellTiter-Glo, 72 hours; format: cell-based; settings: for GI50: geometric mean
Outline: (§1)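 Cells grown in RPMI-1640 with 10% FBS (Panc 05.04 with added insulin, 15% FBS total) were exposed to an 11-point half-log dilution, typically 10 μM–100 pM, at 0.1% DMSO for 72 h at 37 °C. ATP content was read by CellTiter-Glo luminescence. Percent inhibition was set against a time-zero plate and DMSO vehicle wells, on a −100% (cidal) to 100% (uninhibited growth) scale.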

[2] = test system: Panc 05.04 cells (SF3b K700E mutant); experiment: as above; format: cell-based; settings: for GI50: geometric mean
Outline: as §1

[3] = test system: Ad2 variant pre-mRNAs spliced in HeLa S3 nuclear extracts; experiment: In vitro splicing assay (IVS), RT-qPCR of spliced product; format: biochemical; settings: for IC50: geometric mean; for Ratio Ad2.1/2.2: ratio of IVS IC50 Ad2.1 to Ad2.2
Outline: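 Ad2 variant pre-mRNA (2 ng) with FTZΔi control RNA in HeLa S3 nuclear extract (8 μg) was pre-incubated with compound or DMSO for 15 min at 30 °C. Splicing ran 90 min at 30 °C after adding 0.5 mM ATP, creatine phosphate and MgCl2. Spliced product was quantified by TaqMan RT-qPCR, normalized to DMSO, and curve-fitted.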

SF3b complexes = target: T1, SF3b complexes (Homo sapiens, UniProt O75533+Q7RTV0); experiment: Scintillation proximity assay (SPA) with [3H]-labelled pladienolide probe; format: binding; settings: SF3B1 (WT); geometric mean; read-out: SPA-ATS GMean IC50 (nM) SF3B1 (WT)
T1 construct: endogenous in cells; host or cells: Nuclear extracts; A HeLa S3 extract preparation is described for the in vitro splicing assay
Outline: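 SF3b complexes captured from nuclear extracts on anti-SF3B1 antibody SPA beads; test compounds pre-incubated 30 min before 2.5 nM [3H]-pladienolide probe added, then 30 min incubation. Bound probe read by scintillation; values from non-linear regression of concentration–response curves.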

[4] = 72 h, NCIH1568.1, -100% = cidal, 0% = static, 100% = uninhibited growth
[5] = NCI-H1568, read-out: CTGlo-ATS GMean GI50 (nM) 72 h NCIH1568.1, 72 h, NCIH1568.1
[6] = 72 h, PANC0504.1, -100% = cidal, 0% = static, 100% = uninhibited growth
[7] = Panc 05.04, read-out: CTGlo-ATS GMean GI50 (nM) 72 h PANC0504.1, 72 h, PANC0504.1
[8] = Ad2.1 pre-mRNA substrate, read-out: qPCR-IVS-ATS GMean IC50 (nM) Ad2.1
[9] = Ad2.2 pre-mRNA substrate, read-out: qPCR-IVS-ATS GMean IC50 (nM) Ad2.2
[10] = NCIH1568.1 cells, 72 h, −100% cidal, 0% static, 100% maximal growth
[11] = PANC0504.1 cells, 72 h, −100% cidal, 0% static, 100% maximal growth
[12] = NCI-H1568, 72 h, read-out: CTGlo-ATS GMean GI50 (nM) 72 h NCIH1568.1, NCIH1568.1 cells, 72 h
[13] = Panc 05.04, 72 h, read-out: CTGlo-ATS GMean GI50 (nM) 72 h PANC0504.1, PANC0504.1 cells, 72 h
[14] = NCI-H1568, read-out: CTGlo-ATS GMean GI50 (nM) 72 h NCIH1568.1, NCIH1568.1 cells, 72 h
[15] = Panc 05.04, read-out: CTGlo-ATS GMean GI50 (nM) 72 h PANC0504.1, PANC0504.1 cells, 72 h
[16] = NCI-H1568, 72 h, read-out: CTGlo-ATS GMean GI50 (nM) 72 h NCIH1568.1, 72 h, NCIH1568.1

| Structure (SMILES) | CTGlo-ATS Mean MinResponse % 72 h NCIH1568.1 [1, 4] [%] | GI50 [1, 5] [nM] | IC50 [3, 8] [nM] | IC50 [3, 9] [nM] | Ratio Ad2.1/2.2 [3] | IC50 (SF3b complexes) [nM] | CTGlo-ATS Mean MinResponse % 72 h NCIH1568.1 [1, 10] [%] | CTGlo-ATS Mean MinResponse % 72 h PANC0504.1 [2, 11] [%] | further results |
| --- | --- | --- | --- | --- | --- | --- | --- | --- | --- |
| C/C(=C\c1cccc(COC(=O)N2CC[C@@H](F)C2)c1)[C@H]1OC(=O)C[C@H](O)CC[C@H](C)[C@@H](OC(=O)N2CCN(C)CC2)/C=C/[C@@H]1C (single isomer, unassigned) [Compound 256] | −5.090 | 60.9 | > 25000 | 112 | 222.862 | 15.6 |  |  | CTGlo-ATS Mean MinResponse % 72 h PANC0504.1 [2, 6]: −88.839%; GI50 [2, 7]: 43.4 nM |
| C/C(=C\c1cc(F)cc(N2CCOCC2)c1)[C@H]1OC(=O)C[C@H](O)CC[C@@](C)(O)C(OC(=O)N2CCN(C)CC2)/C=C/[C@@H]1C (stereo in doubt) [Compound 86, [(2S,3S,4E,6R,7R,10R)-2-[(E)-1-(3-fluoro-5-morpholin-4-ylphenyl)prop-1-en-2-yl]-7,10-dihydroxy-3,7-dimethyl-12-oxo-1-oxacyclododec-4-en-6-yl] 4-methylpiperazine-1-carboxylate] |  |  | 929 | 89.6 |  | 12.2 | −39.164 | −93.814 | GI50 ([1]; read-out: CTGlo-ATS GMean GI50 (nM) 72 h NCIH1568.1, NCIH1568.1 cells, 72 h): 32.5 nM; GI50 ([2]; read-out: CTGlo-ATS GMean GI50 (nM) 72 h PANC0504.1, PANC0504.1 cells, 72 h): 34.8 nM |
| COCCN1CCN(c2cc(F)cc(/C=C(\C)[C@H]3OC(=O)C[C@H](O)CC[C@H](C)[C@@H](OC(=O)N4CCN(C)CC4)/C=C/[C@@H]3C)c2)CC1=O [Compound 105] |  |  |  |  |  | 2.87 | −68.464 | −90.949 | GI50 [1, 12]: 6.95 nM; GI50 [2, 13]: 5.85 nM |
| C/C(=C\c1cc(F)cc(N2CCN(S(=O)(=O)c3cnn(C)c3)CC2)c1)[C@H]1OC(=O)C[C@H](O)CC[C@H](C)[C@@H](OC(=O)N2CCN(C)CC2)/C=C/[C@@H]1C [Compound 111] |  |  |  |  |  | 28 | −81.303 | −71.803 | GI50 [1, 12]: 12.8 nM; GI50 [2, 13]: 13.9 nM |
| C/C(=C\c1cc(F)cc(N2CCN(S(=O)(=O)c3cccnc3)CC2)c1)[C@H]1OC(=O)C[C@H](O)CC[C@H](C)[C@@H](OC(=O)N2CCN(C)CC2)/C=C/[C@@H]1C [Compound 112] |  |  |  |  |  | 12.8 | −86.973 | −80.066 | GI50 [1, 14]: 6.23 nM; GI50 [2, 15]: 8.29 nM |
| C/C(=C\c1cc(F)cc(N2CCN(S(=O)(=O)c3cn(C)cn3)CC2)c1)[C@H]1OC(=O)C[C@H](O)CC[C@H](C)[C@@H](OC(=O)N2CCN(C)CC2)/C=C/[C@@H]1C [Compound 113] |  |  |  |  |  | 8.2 | −73.107 | −80.966 | GI50 [1, 14]: 41.8 nM; GI50 [2, 15]: 49 nM |
| C/C(=C\c1cc(F)cc(Cl)c1)[C@H]1OC(=O)C[C@H](O)CC[C@H](C)[C@@H](OC(=O)N2CCN(C)CC2)/C=C/[C@@H]1C [Compound 167] |  |  |  |  |  | 3.19 | −70.414 | −85.316 | GI50 [1, 14]: 52.4 nM; GI50 [2, 15]: 34.1 nM |
| C/C(=C\c1cccc(S(=O)(=O)N2CCC(F)(F)C2)c1)[C@H]1OC(=O)C[C@H](O)CC[C@H](C)[C@@H](OC(=O)N2CCN(C)CC2)/C=C/[C@@H]1C [Compound 204, [(2S,3S,4E,6R,7S,10R)-2-[(E)-1-[3-(3,3-difluoropyrrolidin-1-yl)sulfonylphenyl]prop-1-en-2-yl]-10-hydroxy-3,7-dimethyl-12-oxo-1-oxacyclododec-4-en-6-yl] 4-methylpiperazine-1-carboxylate] | −24.924 | 81.9 |  |  |  | 23.5 |  |  | CTGlo-ATS Mean MinResponse % 72 h PANC0504.1 [2, 6]: −94.081%; GI50 [2, 7]: 82 nM |
| C/C(=C\C1=CCCN(C(=O)OC(C)(C)C)C1)[C@H]1OC(=O)C[C@H](O)CC[C@H](C)[C@@H](OC(=O)N2CCN(C)CC2)/C=C/[C@@H]1C [Compound 219, [(2S,3S,4E,6R,7S,10R)-10-hydroxy-3,7-dimethyl-2-[(E)-1-[1-[(2-methylpropan-2-yl)oxycarbonyl]-3,6-dihydro-2H-pyridin-5-yl]prop-1-en-2-yl]-12-oxo-1-oxacyclododec-4-en-6-yl] 4-methylpiperazine-1-carboxylate] | −42.617 | 42.4 |  |  |  | 7.96 |  |  | CTGlo-ATS Mean MinResponse % 72 h PANC0504.1 [2, 6]: −91.460%; GI50 [2, 7]: 24.6 nM |
| C/C(=C\c1cc(F)cc(N2CCN(C(=O)Cn3cccn3)CC2)c1)[C@H]1OC(=O)C[C@H](O)CC[C@H](C)[C@@H](OC(=O)N(C)CCc2ccc(O)cc2)/C=C/[C@@H]1C [Compound 239, [(2S,3S,4E,6R,7S,10R)-2-[(E)-1-[3-fluoro-5-[4-(2-pyrazol-1-ylacetyl)piperazin-1-yl]phenyl]prop-1-en-2-yl]-10-hydroxy-3,7-dimethyl-12-oxo-1-oxacyclododec-4-en-6-yl] N-[2-(4-hydroxyphenyl)ethyl]-N-methylcarbamate] | −77.758 |  | 103 | 48 | 2.151 | 150 |  |  | GI50 [1, 16]: 63.5 nM |
| C/C(=C\c1cc(F)cc(N2CCN(C(=O)Cn3cccn3)CC2)c1)[C@H]1OC(=O)C[C@H](O)CC[C@H](C)[C@@H](OC(=O)N2CCN(Cc3cccc(O)c3)CC2)/C=C/[C@@H]1C [Compound 251, [(2S,3S,4E,6R,7S,10R)-2-[(E)-1-[3-fluoro-5-[4-(2-pyrazol-1-ylacetyl)piperazin-1-yl]phenyl]prop-1-en-2-yl]-10-hydroxy-3,7-dimethyl-12-oxo-1-oxacyclododec-4-en-6-yl] 4-[(3-hydroxyphenyl)methyl]piperazine-1-carboxylate] | −87.236 | 13.4 | 49.7 | 28.1 | 1.765 | 52.4 |  |  |  |
| C/C(=C\c1cc(F)cc(N2CCN(C(=O)Cn3cccn3)CC2)c1)[C@H]1OC(=O)C[C@H](O)CC[C@H](C)[C@@H](OC(=O)N2CCN(Cc3cccnc3)CC2)/C=C/[C@@H]1C [Compound 252, [(2S,3S,4E,6R,7S,10R)-2-[(E)-1-[3-fluoro-5-[4-(2-pyrazol-1-ylacetyl)piperazin-1-yl]phenyl]prop-1-en-2-yl]-10-hydroxy-3,7-dimethyl-12-oxo-1-oxacyclododec-4-en-6-yl] 4-(pyridin-3-ylmethyl)piperazine-1-carboxylate] | −76.109 |  | 22.6 | 27.4 | 0.825 | 21.8 |  |  | GI50 [1, 16]: 10.3 nM |
| C/C(=C\c1cccc(COC(=O)N2CCC3(COC3)C2)c1)[C@H]1OC(=O)C[C@H](O)CC[C@H](C)[C@@H](OC(=O)N2CCN(C)CC2)/C=C/[C@@H]1C [Compound 255, [3-[(E)-2-[(2S,3S,4E,6R,7S,10R)-10-hydroxy-3,7-dimethyl-6-(4-methylpiperazine-1-carbonyl)oxy-12-oxo-1-oxacyclododec-4-en-2-yl]prop-1-enyl]phenyl]methyl 2-oxa-7-azaspiro[3.4]octane-7-carboxylate] | −24.942 | 67.6 |  |  |  | 7.32 |  |  | CTGlo-ATS Mean MinResponse % 72 h PANC0504.1 [2, 6]: −61.401%; GI50 [2, 7]: 65.8 nM |
| C/C(=C\c1cc(F)cc(N2CCN(CC(=O)O)CC2)c1)[C@H]1OC(=O)C[C@H](O)CC[C@H](C)[C@@H](OC(=O)N2CCNCC2)/C=C/[C@@H]1C [Compound 264] | −21.716 |  | 33.4 | 72.4 | 0.461 | 35.7 |  |  | GI50 [1, 16]: 143 nM |
